Key:
[1] = molecular target: His6-TEV-PDGFRβ (557-1016) (Homo sapiens (Human), UniProt P09619); assay: PDGFRβ HTRF Assay; assay type: biochemical; settings: read-out: PDGFR HTRF IC50
How it was run: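 Human PDGFRβ (557-1016) pre-incubated with compound for 30 min at RT in pH 7.5 HEPES/MgCl2/EGTA/Brij-35/DTT buffer. Reaction started with ATP and TK-biotin peptide, run 3 h at RT, then quenched with EDTA-containing Eu-cryptate antibody/streptavidin-XL665. HTRF 665/620 nm ratio read after 60 min; percent inhibition relative to DMSO and 10 μM imatinib controls.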

[2] = molecular target: VEGFR2, unphosphorylated (Homo sapiens (Human), UniProt P35968); assay: VEGFR ADP GLO Assay; assay type: biochemical
VEGFR2, unphosphorylated, sequence (P35968 20-1356): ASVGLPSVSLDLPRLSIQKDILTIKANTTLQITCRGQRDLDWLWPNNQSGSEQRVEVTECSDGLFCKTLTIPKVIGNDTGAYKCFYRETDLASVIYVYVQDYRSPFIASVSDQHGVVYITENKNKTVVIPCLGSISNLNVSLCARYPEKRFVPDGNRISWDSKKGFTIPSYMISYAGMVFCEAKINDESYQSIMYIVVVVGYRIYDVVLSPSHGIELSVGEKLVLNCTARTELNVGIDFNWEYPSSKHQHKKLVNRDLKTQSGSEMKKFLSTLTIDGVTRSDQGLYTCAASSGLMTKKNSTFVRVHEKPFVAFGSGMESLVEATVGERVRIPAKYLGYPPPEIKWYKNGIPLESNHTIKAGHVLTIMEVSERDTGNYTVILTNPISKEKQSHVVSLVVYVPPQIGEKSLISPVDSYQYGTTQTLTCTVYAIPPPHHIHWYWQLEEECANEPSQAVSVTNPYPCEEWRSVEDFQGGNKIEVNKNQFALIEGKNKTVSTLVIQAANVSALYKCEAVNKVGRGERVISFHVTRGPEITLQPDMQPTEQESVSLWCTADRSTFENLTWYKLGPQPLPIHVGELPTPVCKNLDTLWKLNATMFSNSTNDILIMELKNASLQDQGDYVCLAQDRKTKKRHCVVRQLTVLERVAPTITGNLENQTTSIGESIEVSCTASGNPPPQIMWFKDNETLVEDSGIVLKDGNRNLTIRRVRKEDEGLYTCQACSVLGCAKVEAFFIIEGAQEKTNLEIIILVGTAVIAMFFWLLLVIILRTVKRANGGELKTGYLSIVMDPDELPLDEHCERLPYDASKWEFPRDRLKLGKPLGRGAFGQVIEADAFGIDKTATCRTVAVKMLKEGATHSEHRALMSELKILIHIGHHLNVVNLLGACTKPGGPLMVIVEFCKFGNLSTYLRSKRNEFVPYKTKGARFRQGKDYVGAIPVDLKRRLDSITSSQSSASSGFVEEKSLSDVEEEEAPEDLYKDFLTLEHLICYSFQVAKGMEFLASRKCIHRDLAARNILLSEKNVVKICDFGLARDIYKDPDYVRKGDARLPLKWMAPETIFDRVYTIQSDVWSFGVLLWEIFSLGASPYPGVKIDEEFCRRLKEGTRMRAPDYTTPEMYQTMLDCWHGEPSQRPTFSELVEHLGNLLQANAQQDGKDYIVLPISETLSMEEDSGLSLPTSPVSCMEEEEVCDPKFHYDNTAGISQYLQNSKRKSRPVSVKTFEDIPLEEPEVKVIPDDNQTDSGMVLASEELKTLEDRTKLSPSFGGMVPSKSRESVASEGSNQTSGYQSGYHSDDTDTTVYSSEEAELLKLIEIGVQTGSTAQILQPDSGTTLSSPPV

[3] = molecular target: Tb-labeled inactive PDGFRβ (Homo sapiens (Human), UniProt P09619); assay: PDGFRβ LanthaScreen Assay; assay type: binding; settings: read-out: PDGFR Lantha IC50
Tb-labeled inactive PDGFRβ, sequence (P09619 33-1106): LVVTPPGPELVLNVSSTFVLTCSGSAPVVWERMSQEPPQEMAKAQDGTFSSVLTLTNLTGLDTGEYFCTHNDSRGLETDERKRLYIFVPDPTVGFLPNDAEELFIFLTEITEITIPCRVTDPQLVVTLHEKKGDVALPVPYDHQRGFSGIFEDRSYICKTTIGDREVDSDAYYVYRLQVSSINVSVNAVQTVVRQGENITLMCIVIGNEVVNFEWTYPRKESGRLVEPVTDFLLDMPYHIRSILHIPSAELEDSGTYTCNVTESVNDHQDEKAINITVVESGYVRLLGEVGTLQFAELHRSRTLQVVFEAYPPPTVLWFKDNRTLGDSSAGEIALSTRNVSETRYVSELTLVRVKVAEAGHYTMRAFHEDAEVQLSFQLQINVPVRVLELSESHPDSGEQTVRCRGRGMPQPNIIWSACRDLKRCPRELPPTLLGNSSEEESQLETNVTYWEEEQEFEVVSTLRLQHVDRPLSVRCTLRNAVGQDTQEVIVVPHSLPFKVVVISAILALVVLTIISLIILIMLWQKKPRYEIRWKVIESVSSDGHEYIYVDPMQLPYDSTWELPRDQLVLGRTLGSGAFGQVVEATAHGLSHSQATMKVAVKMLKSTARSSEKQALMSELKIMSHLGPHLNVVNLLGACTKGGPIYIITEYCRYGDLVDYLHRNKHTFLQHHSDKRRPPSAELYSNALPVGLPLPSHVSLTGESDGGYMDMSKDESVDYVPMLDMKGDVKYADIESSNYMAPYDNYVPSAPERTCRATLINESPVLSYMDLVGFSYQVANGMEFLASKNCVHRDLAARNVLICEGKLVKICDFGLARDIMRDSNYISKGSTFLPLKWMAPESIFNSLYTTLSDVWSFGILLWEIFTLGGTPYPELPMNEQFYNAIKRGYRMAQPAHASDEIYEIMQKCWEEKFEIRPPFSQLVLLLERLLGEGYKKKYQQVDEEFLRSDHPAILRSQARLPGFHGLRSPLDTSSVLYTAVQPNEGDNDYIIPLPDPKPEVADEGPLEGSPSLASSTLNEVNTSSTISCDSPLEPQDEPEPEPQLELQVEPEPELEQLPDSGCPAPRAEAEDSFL

His6-TEV-PDGFRβ (557-1016), sequence (P09619 557-1016): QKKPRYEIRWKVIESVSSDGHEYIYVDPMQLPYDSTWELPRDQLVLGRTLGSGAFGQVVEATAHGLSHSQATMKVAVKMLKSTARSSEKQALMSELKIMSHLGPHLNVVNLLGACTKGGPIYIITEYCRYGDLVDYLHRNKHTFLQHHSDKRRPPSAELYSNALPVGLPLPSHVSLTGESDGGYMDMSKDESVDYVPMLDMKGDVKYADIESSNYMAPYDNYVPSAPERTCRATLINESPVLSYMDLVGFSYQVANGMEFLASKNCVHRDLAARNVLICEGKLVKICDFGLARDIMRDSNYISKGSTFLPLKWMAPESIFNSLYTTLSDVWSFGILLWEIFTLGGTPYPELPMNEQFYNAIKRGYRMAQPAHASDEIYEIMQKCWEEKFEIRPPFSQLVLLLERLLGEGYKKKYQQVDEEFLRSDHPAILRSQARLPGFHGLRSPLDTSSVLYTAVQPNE

Row | Compound | IC50 [1] [nM] | IC50 [2] [nM] | IC50 [3] [nM]
1 | Cc1ncc(C(=O)NC2CN(C(C)(C)C)C2)cc1NC(=O)c1cnn2cc(-c3cccc4c3cnn4C)sc12 [Example 238, N-(5-((1-(tert-butyl)azetidin-3-yl)carbamoyl)-2-methylpyridin-3-yl)-2-(1-methyl-1H-indazol-4-yl)pyrazolo[5,1-b]thiazole-7-carboxamide] | 0.4 | > 2500 | 7.5
2 | Cc1ncc(C(=O)N2CC2CNC(C)(C)C)cc1NC(=O)c1cnn2cc(-c3cccc4c3cnn4C)sc12 (stereo not drawn) [Example 239, N-(5-(2-((tert-butylamino)methyl)aziridine-1-carbonyl)-2-methylpyridin-3-yl)-2-(1-methyl-1H-indazol-4-yl)pyrazolo[5,1-b]thiazole-7-carboxamide] | 5 | > 2500 | 78.7
3 | Cc1ncc(C(=O)NCCN2CCCC2(C)C)cc1NC(=O)c1cnn2cc(-c3cccc4c3cnn4C)sc12 [Example 240, N-(5-((2-(2,2-dimethylpyrrolidin-1-yl)ethyl)carbamoyl)-2-methylpyridin-3-yl)-2-(1-methyl-1H-indazol-4-yl)pyrazolo[5,1-b]thiazole-7-carboxamide] | 0.3 | > 2500 | 2
4 | Cc1ncc(NC(=O)CCN2CCCC2(C)C)cc1NC(=O)c1cnn2cc(-c3cccc4c3cnn4C)sc12 [Example 241, N-(5-(3-(2,2-dimethylpyrrolidin-1-yl)propanamido)-2-methylpyridin-3-yl)-2-(1-methyl-1H-indazol-4-yl)pyrazolo[5,1-b]thiazole-7-carboxamide] | 0.1 | > 2500 | 0.7
5 | COc1ncccc1-c1cn2ncc(C(=O)Nc3cc(C(=O)NCCN4CCC[C@H]4C)cnc3C)c2s1 [Example 242, (R)-2-(2-methoxypyridin-3-yl)-N-(2-methyl-5-((2-(2-methylpyrrolidin-1-yl)ethyl)carbamoyl)pyridin-3-yl)pyrazolo[5,1-b]thiazole-7-carboxamide] | 0.2 | > 7500 | 1.7
6 | Cc1ncc(NC(=O)OC[C@@H]2CCCN2C)cc1NC(=O)c1cnn2cc(-c3cnn(C)c3)sc12 [Example 243, (S)-(1-methylpyrrolidin-2-yl)methyl (6-methyl-5-(2-(1-methyl-1H-pyrazol-4-yl)pyrazolo[5,1-b]thiazole-7-carboxamido)pyridin-3-yl)carbamate] | 0.5 | > 7500 | 13.1
7 | Cc1ncc(NC(=O)OC[C@H]2CCCN2C)cc1NC(=O)c1cnn2cc(-c3cnn(C)c3)sc12 [Example 244, (R)-(1-methylpyrrolidin-2-yl)methyl (6-methyl-5-(2-(1-methyl-1H-pyrazol-4-yl)pyrazolo[5,1-b]thiazole-7-carboxamido)pyridin-3-yl)carbamate] | 0.5 | > 7500 | 15.3
8 | Cc1ncc(NC(=O)OC[C@@H]2CCCN2C(C)C)cc1NC(=O)c1cnn2cc(-c3cnn(C)c3)sc12 [Example 245, (S)-(1-isopropylpyrrolidin-2-yl)methyl (6-methyl-5-(2-(1-methyl-1H-pyrazol-4-yl)pyrazolo[5,1-b]thiazole-7-carboxamido)pyridin-3-yl)carbamate] | 0.4 | > 7500 | 10.8
9 | Cc1ncc(NC(=O)OCCN2CCCC2)cc1NC(=O)c1cnn2cc(-c3cnn(C)c3)sc12 [Example 246, 2-(pyrrolidin-1-yl)ethyl (6-methyl-5-(2-(1-methyl-1H-pyrazol-4-yl)pyrazolo[5,1-b]thiazole-7-carboxamido)pyridin-3-yl)carbamate] | 1.4 | > 7500 | 64.7
10 | Cc1ncc(NC(=O)OCCN2CCCC2(C)C)cc1NC(=O)c1cnn2cc(-c3cnn(C)c3)sc12 [Example 247, 2-(2,2-dimethylpyrrolidin-1-yl)ethyl (6-methyl-5-(2-(1-methyl-1H-pyrazol-4-yl)pyrazolo[5,1-b]thiazole-7-carboxamido)pyridin-3-yl)carbamate] | 0.6 | > 7500 | 19.3
11 | Cc1ncc(NC(=O)OCC(C)N2CCCC2)cc1NC(=O)c1cnn2cc(-c3cnn(C)c3)sc12 (stereo not drawn) [Example 248, 2-(pyrrolidin-1-yl)propyl (6-methyl-5-(2-(1-methyl-1H-pyrazol-4-yl)pyrazolo[5,1-b]thiazole-7-carboxamido)pyridin-3-yl)carbamate] | 0.4 | > 7500 | 10.2
12 | Cc1ncc(NC(=O)OCC(C)(C)N2CCCC2)cc1NC(=O)c1cnn2cc(-c3cnn(C)c3)sc12 [Example 249, 2-methyl-2-(pyrrolidin-1-yl)propyl (6-methyl-5-(2-(1-methyl-1H-pyrazol-4-yl)pyrazolo[5,1-b]thiazole-7-carboxamido)pyridin-3-yl)carbamate] | 0.5 | > 7500 | 6.5
13 | Cc1ncc(NC(=O)OCCN2CC3CCC2C3)cc1NC(=O)c1cnn2cc(-c3cnn(C)c3)sc12 (stereo not drawn) [Example 250, 2-(2-azabicyclo[2.2.1]heptan-2-yl)ethyl (6-methyl-5-(2-(1-methyl-1H-pyrazol-4-yl)pyrazolo[5,1-b]thiazole-7-carboxamido)pyridin-3-yl)carbamate] | 1.4 | > 7500 | 75.2
14 | Cc1ncc(NC(=O)OCCN(C)C2CCCCC2)cc1NC(=O)c1cnn2cc(-c3cnn(C)c3)sc12 [Example 251, 2-(cyclohexyl(methyl)amino)ethyl (6-methyl-5-(2-(1-methyl-1H-pyrazol-4-yl)pyrazolo[5,1-b]thiazole-7-carboxamido)pyridin-3-yl)carbamate] | 1.5 | > 7500 | 33.6
15 | Cc1ncc(NC(=O)OC2CN(C(C)(C)C)C2)cc1NC(=O)c1cnn2cc(-c3cnn(C)c3)sc12 [Example 252, 1-(tert-butyl)azetidin-3-yl (6-methyl-5-(2-(1-methyl-1H-pyrazol-4-yl)pyrazolo[5,1-b]thiazole-7-carboxamido)pyridin-3-yl)carbamate] | 1.1 | > 7500 | 53.2
16 | COc1ncccc1-c1cn2ncc(C(=O)Nc3cc(NC(=O)OC[C@@H]4CCCN4C)cnc3C)c2s1 [Example 253, (S)-(1-methylpyrrolidin-2-yl)methyl (5-(2-(2-methoxypyridin-3-yl)pyrazolo[5,1-b]thiazole-7-carboxamido)-6-methylpyridin-3-yl)carbamate] | 0.2 | > 7500 | 1.8
